# Data published in article PMC7705649 (Scientific Reports, 2020).
# Where “and” joins values, the source holds several entries; their conditions need not be identical. Identical values can stand only once. Like-named read-outs stand apart in the source and are kept apart here.
# Assays:
# [1] = RP-HPLC hydrophobicity determination (C18 column); assay type: physicochemical; conditions: Symmetry C18, phosphate-buffered saline/methanol, y-intercept of log k vs methanol fraction, 25 °C; ± 95% confidence interval
# Experimental: All HPLC measurements were carried out on an Agilent 1100 series HPLC system (Agilent Technologies, Waldbronn, Germany) coupled with a diode array detector (DAD). System control, data collection and data processing were accomplished using ChemStation for LC 3D software by Agilent Technologies. RP-HPLC hydrophobicity determination was carried on Symmetry C18 reversed-phase column (150 × 4.6 mm, 3.5 µm particle size) obtained by Waters (Milford, MA, USA), with phosphate-buffered saline and methanol as mobile phase. The flow rate was set at 1.0 mL/min with the injection volume of 10.0 µL whilst the column temperature was maintained at 25.0 ± 0.1 °C. To obtain hydrophobicity, the log k values were calculated using retention times of investigated compounds (tR) and retention time of sodium nitrate as unretained compound (t0). […] At least five different concentrations of methanol in the mobile phase were applied for each standard substance and all measurements at each methanol fraction were performed in triplicates. […] Column equilibration time of 20 min was necessary after every change of mobile phase. Finally, log kw C18 value, describing hydrophobicity, was obtained by calculating the y-intercept of the regression line in a plot of log k vs. methanol fraction in the mobile phase.
# [2] = Affinity for immobilized phospholipids (IAM chromatography); assay type: physicochemical; conditions: IAM.PC.DD2 column, phosphate-buffered saline/methanol, y-intercept of log k vs methanol fraction; ± 95% confidence interval
# From the text: The same HPLC conditions, mobile phases and calculation approaches were used for evaluation of IAM affinity, as in determining hydrophobicity with the RP-HPLC column.
# [3] = tested on: α1-acid-glycoprotein; test: Plasma protein binding on biomimetic AGP column; assay type: in vitro ADME; conditions: for PPBAGP (%): binding percentage to α1-acid-glycoprotein, biomimetic column, ± RSD (%)
# [4] = target: T1, human serum albumin (Homo sapiens, UniProt P02768); conditions: binding percentage to human serum albumin, biomimetic column, ± RSD (%)
# [5] = target: T1, human serum albumin; test: Frontal analysis of FA on HSA column (HPAC); assay type: binding
# Experimental: Frontal and zonal elution studies were carried out on HSA (Chiralpak-HSA, 50 × 4.6 mm, 5 μm particle size) biomimetic column obtained by ChromTech (Cedex, France). […] Injection volume was set at 10.0 µL and the measurements were carried out at 25.0 ± 0.1 °C.
# T1 sequence (P02768 25-609): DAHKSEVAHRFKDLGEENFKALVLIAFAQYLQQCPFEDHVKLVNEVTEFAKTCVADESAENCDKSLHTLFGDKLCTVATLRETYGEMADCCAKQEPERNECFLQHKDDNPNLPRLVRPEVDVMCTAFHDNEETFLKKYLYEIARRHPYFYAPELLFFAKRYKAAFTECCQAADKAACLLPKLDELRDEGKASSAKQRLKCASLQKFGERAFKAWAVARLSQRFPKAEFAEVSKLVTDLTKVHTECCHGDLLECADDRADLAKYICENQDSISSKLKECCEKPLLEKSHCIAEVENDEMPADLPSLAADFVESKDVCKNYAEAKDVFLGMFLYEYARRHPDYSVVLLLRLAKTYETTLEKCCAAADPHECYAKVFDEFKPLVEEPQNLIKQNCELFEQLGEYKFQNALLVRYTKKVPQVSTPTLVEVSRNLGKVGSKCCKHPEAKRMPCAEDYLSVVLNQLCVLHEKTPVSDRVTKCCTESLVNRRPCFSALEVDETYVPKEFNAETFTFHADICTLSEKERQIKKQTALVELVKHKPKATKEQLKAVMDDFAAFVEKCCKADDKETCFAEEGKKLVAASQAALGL
Compound,log kw C18 [1],log kw IAM [2],PPBAGP (%) [3] [%],affinity for AGP lower than for HSA ([3]; difference PPBHSA minus PPBAGP) [%],PPBHSA (%) [4] [%],"moles of binding sites (mL) ([5]; frontal analysis, HSA column, brackets = 95% confidence interval)","type of binding site on HSA ([5]; linear double-reciprocal plot, 1-20 µM FA)",PPBHSA (%) ([4]; listed as folic acid)
"O=C(O)CCNC(=O)c1ccc(/N=N/c2ccc(O)c(C(=O)O)c2)cc1 [BSZ, balsalazide]",3.01 ± 0.09,1.20 ± 0.11,77.60 ± 0.58,14,91.64 ± 0.04,–,–,–
"Nc1ccc(O)c(C(=O)O)c1 [MSZ, mesalazine]",0.37 and 0.37 ± 0.19,0.17 and 0.17 ± 0.02,–,–,61.44 ± 0.51,–,–,–
"O=C(O)c1cc(/N=N/c2ccc(S(=O)(=O)Nc3ccccn3)cc2)ccc1O [SASP, sulfasalazine]",3.71 ± 0.24,2.77 ± 0.23,–,–,–,–,–,–
"Nc1nc2ncc(CNc3ccc(C(=O)N[C@@H](CCC(=O)O)C(=O)O)cc3)nc2c(=O)[nH]1 [FA, folic acid]",0.99 and 0.99 ± 0.31,–,3.45,–,69.40 ± 0.53,2.34 (± 1.16) × 10^–7 mol,single type of binding site,69.40
"O=C(O)c1cc(/N=N/c2ccc(O)c(C(=O)O)c2)ccc1O [OSZ, olsalazine]",3.25 ± 0.09,1.69 ± 0.17,–,–,96.00 ± 0.03,–,–,–
